Measurements reported in patent publication US20230365546A1, “5-SUBSTITUTED INDOLE 3-AMIDE DERIVATIVES, PREPARATION METHOD AND USE THEREOF” (ORIGIANT PHARMACEUTICAL CO., LTD, priority 2020, published 2023).

Legend:
RIPK1 = RIPK1 (Homo sapiens (Human), UniProt Q13546); test: In vitro kinase assay (Eurofins Kinase Profiler), IC50; assay type: biochemical; details: 0.001-10 μM, read-out: RIPK 1 (IC50)
Procedure: In vitro kinase assays were conducted using Kinase Profiler services provided by Eurofins. The experimental method was as follows: the small molecule compound to be tested (0.001-10 μM), the protein kinase to be tested were incubated with a buffer containing substrate, 10 mM magnesium acetate, and [γ-^33P-ATP], the reaction was started by adding Mg\TPmix, after incubation for a period of time at room temperature, a 3% phosphate solution was added to the buffer to stop the reaction. Subsequently, 10 μL of the reaction mixture was quantitatively pipetted onto P30 filter paper, which was washed three times with 75 mM phosphate solution and then once with methanol. The P30 filter paper was air-dried and scintillation fluid was added for scintillation counting.

HT-29 cells = test: Protection against programmed necrosis of HT-29 cells (TNF α/Smac mimetic/Z-VAD-FMK, CCK8); assay type: cell-based; details: Homo sapiens, TNF α/Smac mimetic/Z-VAD-FMK induced 24 h, CCK8, read-out: HT-29 (EC50)

Chain of RIPK1 (Q13546 whole entry): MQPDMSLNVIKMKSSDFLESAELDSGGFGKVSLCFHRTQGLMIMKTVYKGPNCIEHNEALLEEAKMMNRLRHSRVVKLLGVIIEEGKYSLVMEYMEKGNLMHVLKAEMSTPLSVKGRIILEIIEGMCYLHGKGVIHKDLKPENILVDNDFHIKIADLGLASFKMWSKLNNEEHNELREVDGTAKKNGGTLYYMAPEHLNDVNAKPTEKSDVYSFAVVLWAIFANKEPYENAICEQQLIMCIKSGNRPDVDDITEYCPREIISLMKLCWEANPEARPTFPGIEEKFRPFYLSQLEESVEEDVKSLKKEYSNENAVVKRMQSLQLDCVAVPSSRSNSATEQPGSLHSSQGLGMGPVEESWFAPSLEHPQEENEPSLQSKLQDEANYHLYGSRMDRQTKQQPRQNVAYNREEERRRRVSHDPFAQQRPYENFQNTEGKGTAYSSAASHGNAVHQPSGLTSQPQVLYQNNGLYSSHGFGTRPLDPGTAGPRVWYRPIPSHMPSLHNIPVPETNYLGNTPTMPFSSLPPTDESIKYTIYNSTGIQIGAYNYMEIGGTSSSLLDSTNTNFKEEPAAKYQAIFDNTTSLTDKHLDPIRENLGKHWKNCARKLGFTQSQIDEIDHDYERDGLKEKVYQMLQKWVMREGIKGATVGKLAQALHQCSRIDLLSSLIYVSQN

| SMILES | IC50 (RIPK1) [nM] | EC50 (HT-29 cells) [nM] |
| --- | --- | --- |
| CC(C)C(=O)Nc1nc2cc(-c3ccc4c(c3)c(C(=O)NC(C)c3ccccn3)cn4C)ccn2n1 (centres unmarked) [Compound 135] | 10 to 100 | 1 to 10 |
| CC(C)C(=O)Nc1nc2cc(-c3ccc4c(c3)c(C(=O)N[C@H](C)c3ccccn3)cn4C)ccn2n1 [Compound 136] | 100 to 1000 | 10 to 100 |
| CC(C)C(=O)Nc1nc2cc(-c3ccc4c(c3)c(C(=O)N[C@@H](C)c3ccccn3)cn4C)ccn2n1 [Compound 137] | 10 to 100 | < 1 |
| CC(C)C(=O)Nc1nc2cc(-c3ccc4c(c3)c(C(=O)NC(C)c3cccnc3)cn4C)ccn2n1 (centres unmarked) [Compound 138] | ≥ 1000 | ≥ 1000 |
| CC(C)C(=O)Nc1nc2cc(-c3ccc4c(c3)c(C(=O)NC(C)c3ccncc3)cn4C)ccn2n1 (centres unmarked) [Compound 139] | 10 to 100 | 10 to 100 |
| CC(C)C(=O)Nc1nc2cc(-c3ccc4c(c3)c(C(=O)N[C@H]3CCCc5ccccc53)cn4C)ccn2n1 [Compound 140] | 100 to 1000 | 10 to 100 |
| C[C@H](NC(=O)c1cn(C)c2ccc(-c3ccn4nc(N)nc4c3)cc12)c1cccc(F)c1 [Compound 141, (S)-5-(2-amino-[1,2,4]triazolo[1,5-a]pyridin-7-yl)-N-(1-(3-fluorophenyl)ethyl)-1-methyl-1H-indole-3-carboxamide] | 10 to 100 | 1 to 10 |
| C[C@H](NC(=O)c1cn(C)c2ccc(-c3ccn4nc(NC(=O)C(C)(C)CCl)nc4c3)cc12)c1cccc(F)c1 [Compound 148] | ≥ 1000 | ≥ 1000 |
| CCn1cc(C(=O)N[C@@H](C)c2cccc(F)c2)c2cc(-c3ccn4nc(NC(=O)C5CC5)nc4c3)ccc21 [Compound 149] | 10 to 100 | < 1 |
| CC(C)n1cc(C(=O)N[C@@H](C)c2cccc(F)c2)c2cc(-c3ccn4nc(NC(=O)C5CC5)nc4c3)ccc21 [Compound 150] | 10 to 100 | 1 to 10 |
| CCCn1cc(C(=O)N[C@@H](C)c2cccc(F)c2)c2cc(-c3ccn4nc(NC(=O)C5CC5)nc4c3)ccc21 [Compound 151] | 1 to 10 | < 1 |
| CCCCn1cc(C(=O)N[C@@H](C)c2cccc(F)c2)c2cc(-c3ccn4nc(NC(=O)C5CC5)nc4c3)ccc21 [Compound 152] | 10 to 100 | 10 to 100 |
| CC(C)Cn1cc(C(=O)N[C@@H](C)c2cccc(F)c2)c2cc(-c3ccn4nc(NC(=O)C(C)C)nc4c3)ccc21 [Compound 153] | 100 to 1000 | 100 to 1000 |
| COCCn1cc(C(=O)N[C@@H](C)c2cccc(F)c2)c2cc(-c3ccn4nc(NC(=O)C5CC5)nc4c3)ccc21 [Compound 154] | 10 to 100 | 1 to 10 |
| C[C@H](NC(=O)c1cn(C)c2ccc(-c3ccc4nc(NC(=O)C5CC5)nn4c3)cc12)c1cccc(F)c1 [Compound 155] | 10 to 100 | 1 to 10 |
| CC(C)C(=O)Nc1nc2cc(-c3cnc4[nH]cc(C(=O)N[C@@H](C)c5cccc(F)c5)c4c3)ccn2n1 [Compound 157] | 10 to 100 | 1 to 10 |
| CC(C)C(=O)Nc1nc2cc(-c3cnc4c(c3)c(C(=O)N[C@@H](C)c3cccc(F)c3)cn4C)ccn2n1 [Compound 158] | 1 to 10 | < 1 |
| CC(C)C(=O)Nc1nc2cc(-c3cn(C)c4ncc(C(=O)N[C@@H](C)c5cccc(F)c5)cc34)ccn2n1 [Compound 159] | 100 to 1000 | 100 to 1000 |
| C[C@H](NC(=O)c1ccc2ncc(-c3ccn4nc(NC(=O)C5CC5)nc4c3)cc2c1)c1cccc(F)c1 [Compound 160] | 10 to 100 | 10 to 100 |
| C[C@H](NC(=O)c1cn(C)c2ccc(-c3ccn4nc(NC(=O)N[C@@H](C)CO)nc4c3)cc12)c1cccc(F)c1 [Compound 165] | 10 to 100 | < 1 |
| CC(NC(=O)c1cn(C)c2ccc(-c3ccn4nc(NC(=O)C5CC5)nc4c3)cc12)c1ccc(F)c(F)c1 (centres unmarked) [Compound 167] | 10 to 100 | 10 to 100 |
| CC(C)CNc1nc2cc(-c3ccc4c(c3)c(C(=O)N[C@@H](C)c3cccc(F)c3)cn4C)ccn2n1 [Compound 171] | 1 to 10 | < 1 |
| Cn1cc(C(=O)N2CCC[C@H]2c2cccc(F)c2)c2cc(-c3ccn4nc(NC(=O)C5CC5)nc4c3)ccc21 [Compound 173] | 1 to 10 | < 1 |

More lines, main results first:

| IC50 (RIPK1) [nM] | SMILES | EC50 (HT-29 cells) [nM] |
| --- | --- | --- |
| 10 to 100 | C[C@H](NC(=O)c1cn(C)c2ccc(-c3ccn4nc(NC(=O)C5CC5(F)F)nc4c3)cc12)c1cccc(F)c1 (stereo partly drawn) [Compound 142, 5-(2-(2,2-difluorocyclopropane-1-carboxamido)-[1,2,4]triazolo[1,5-a]pyridin-7-yl)-N-((S)-1-(3-fluorophenyl)ethyl)-1-methyl-1H-indole-3-Carboxamide] | < 1 |
| 10 to 100 | C[C@H](NC(=O)c1cn(C)c2ccc(-c3ccn4nc(NC(=O)[C@H]5C[C@H]5F)nc4c3)cc12)c1cccc(F)c1 [Compound 143] | < 1 |
| 10 to 100 | C[C@H](NC(=O)c1cn(C)c2ccc(-c3ccn4nc(NC(=O)[C@@H]5C[C@@H]5F)nc4c3)cc12)c1cccc(F)c1 [Compound 144] | < 1 |
| 1 to 10 | C[C@H](NC(=O)c1cn(C)c2ccc(-c3ccn4nc(NC(=O)C5(F)CC5)nc4c3)cc12)c1cccc(F)c1 [Compound 145] | < 1 |
| 1 to 10 | C[C@H](NC(=O)c1cn(C)c2ccc(-c3ccn4nc(NC(=O)C5CC(F)(F)C5)nc4c3)cc12)c1cccc(F)c1 [Compound 146] | < 1 |
| 10 to 100 | C[C@H](NC(=O)c1cn(C)c2ccc(-c3ccn4nc(NC(=O)C5CCC(F)(F)CC5)nc4c3)cc12)c1cccc(F)c1 [Compound 147] | 1 to 10 |
| 10 to 100 | C[C@@H](NC(=O)c1cn(C)c2ccc(-c3ccn4nc(NC(=O)C5CC5)nc4c3)cc12)c1cccc(F)c1 [Compound 156] | < 1 |
| 1 to 10 | C[C@H](NC(=O)c1cn(C)c2ccc(-c3ccn4nc(NC(=O)C5CCCO5)nc4c3)cc12)c1cccc(F)c1 (some centres unmarked) [Compound 161] | < 1 |
| 10 to 100 | C[C@H](NC(=O)c1cn(C)c2ccc(-c3ccn4nc(NC(=O)N5CC[C@@H](O)C5)nc4c3)cc12)c1cccc(F)c1 [Compound 162, N-((S)-1-(3-fluorophenyl)ethyl)-5-(2-((R)-3-hydroxypyrrolidine-1-carboxamido)-[1,2,4]triazolo[1,5-a]pyridin-7-yl)-1-methyl-1H-indole-3-carboxamide] | 10 to 100 |
| 100 to 1000 | C[C@H](NC(=O)c1cn(C)c2ccc(-c3ccn4nc(NC(=O)N5CC[C@H](O)C5)nc4c3)cc12)c1cccc(F)c1 [Compound 163] | 10 to 100 |
| 100 to 1000 | C[C@H](NC(=O)c1cn(C)c2ccc(-c3ccn4nc(NC(=O)N5CCC[C@H]5CO)nc4c3)cc12)c1cccc(F)c1 [Compound 164] | 1 to 10 |
| 1 to 10 | C[C@H](NC(=O)c1cn(C)c2ccc(-c3ccn4nc(NC(=O)N5CCCC(O)C5)nc4c3)cc12)c1cccc(F)c1 (some centres unmarked) [Compound 169] | < 1 |
| 1 to 10 | C[C@H](NC(=O)c1cn(C)c2ccc(-c3ccn4nc(NC(=O)N5CCC(O)CC5)nc4c3)cc12)c1cccc(F)c1 [Compound 170] | < 1 |
| ≥ 1000 | C[C@H](NC(=O)c1cn(C)c2ccc(-c3ccn4nc(NC(=O)N5CC(O)C5)nc4c3)cc12)c1cccc(F)c1 [Compound 172] | 100 to 1000 |
